The source of these data is patent publication US11541049B2, “Tetrahydroisoquinoline derivatives, preparation process and use thereof” (SICHUAN KELUN-BIOTECH BIOPHARMACEUTICAL CO., LTD., priority 2018, dated 2023).

Structures are written as SMILES.

As usually defined, the AUC(0-inf) is the area under the concentration-time curve extrapolated to infinity. Read a low AUC(0-inf) as low exposure. As a reminder, the AUC(0-t) is exposure summed from dosing to a finite time, without extrapolation to infinity. Low readings indicate less exposure, high ones more exposure. Broadly, the Cmax is the highest concentration seen after dosing. What is called clearance is a measure of how efficiently the substance is removed, as volume per time. Read a low clearance as a low capacity for elimination. The term half-life denotes the time needed for the level to fall by half in the phase considered. A low value points to rapid decline. One may read the Vd as the apparent volume that relates the amount in the body to the concentration in plasma or blood. A lower Vd goes with confinement near the circulation. A word on the NOAEL: it is the highest dose or exposure tested at which no adverse effect was seen. A word on the IC50: it is the point on the concentration scale where inhibition reaches its midpoint.

A short description of series [1]: Pharmacokinetics study in male SD rats, intravenous injection. Format: in vivo. The following applies: male, SD, rat, plasma, rats, 5 mg/kg. How it is done:
Pharmacokinetics characteristics were examined by administering compound of the present disclosure and the reference compound (BMS-962212) to male SD rats through intravenous injection (IV). Blood was collected at various time points after administration. The blood was anticoagulated with EDTA-K2. Plasma samples were obtained by centrifugation within 30 min after blood collection, and retained at −80° C. The plasma samples were processed to precipitate the proteins and then analyzed by LC-MS/MS.
(§1) The pharmacokinetic parameters were calculated using WinNonlin 6.3 software by employing a non-compartmental model.

Series [2] in a line: Pharmacokinetics study in male rabbits, intravenous injection. The series is classed as in vivo. Conditions: male, rabbit, plasma, 1 mg/kg. The protocol: Pharmacokinetics properties were examined by administering compound of the present disclosure and the reference compound (BMS-962212) to male rabbits through intravenous injection (IV). Blood was collected at various time points after administration. The blood was anticoagulated with EDTA-K2. Plasma samples were obtained by centrifugation, and retained at −80° C. The plasma samples were processed to precipitate the proteins and then analyzed by LC-MS/MS.
as §1

Series [3] in a line: Pharmacokinetics study in Beagle dogs, intravenous injection. Conditions: dog, plasma, 0.5 mg/kg. The series is classed as in vivo, Beagle dog. The protocol: Pharmacokinetics properties were examined by administering compound of the present disclosure and the reference compound (BMS-962212) to Beagle dog through intravenous injection (IV). Blood was collected at various time points after administration. The blood was anticoagulated with EDTA-K2. Plasma samples were obtained by centrifugation, and retained at −80° C. The plasma samples were processed to precipitate the proteins and then analyzed by LC-MS/MS.
as §1

Series [4] is described as follows: Repeated dose toxicity study in SD rats, intravenous infusion, daily for 14 days. The series is classed as in vivo. Conditions: rat, in vivo, daily for 14 days, SD rats, read-out: No-observed-adverse-effect level (NOAEL). How it is done: (§2) The administration was repeated daily for 14 days, while clinical observation, body weight and food intake were recorded. […] Observation by gross anatomy and examination of histopathology were also conducted.

The test system of series [5] is SD rats. The series is described as above. Format: in vivo. The following applies: 60 mg/kg. How it is done:
as §2

Series [6] is described as follows: Single dose toxicity study in SD rats, intravenous infusion. Conditions: SD, rat, in vivo, iv.
Method: (§3) The clinical observation was carried out for 7 days after a single dose, and the body weight of the animals were measured. On the 8th day, blood samples were taken after anesthesia for detection of hematology, blood biochemistry, coagulation and other indicators. Observation was also conducted by gross anatomy.
Series [7] deals with SD rats. The series is described as above. Conditions: intravenous infusion (2 ml/min).
Method: as §3
In series [8] the target is human coagulation factor XIa (Homo sapiens (Human), UniProt P03951). Briefly: Inhibition of coagulation factor XIa (fluorogenic substrate, enzyme kinetic mode). The series is classed as biochemical. The protocol: The following procedures can be used to determine the in vitro inhibition of human coagulation factor XIa by the compound of the present disclosure, as indicated by IC50.
Enzyme: human coagulation factor XIa; manufacturer: Haemtech;
Substrate: Boc-Ile-Glu-Gly-Arg-AMC Acetate salt; manufacturer: Bachem;
Reaction buffer: 50 mM HEPES, 145 mM NaCl, 5 mM KCl, 0.1% BSA, pH 7.4;
The test compounds were dissolved in reaction buffer at different concentrations. 4 μl of coagulation factor XIa and 4 μl of the test compound were added to a 384 well plate, incubated at room temperature for 10 minutes after mixed thoroughly, and then 4 μl of substrate was added to initiate the reaction. For reading fluorescence signal value, enzyme kinetic mode was used. The wavelength of excitation light was selected to be 380 nm, and the wavelength of emission light was selected to be 460 nm. Read once per 30 seconds, and continuously read 20 cycles. Linear regression analysis of signal value-time was performed during the linear reaction period, and the slope was the reaction rate, and the enzyme activity inhibition rate was calculated according to the following formula. The half inhibitory concentration IC50 values of the compound were fitted using GraphPad Prism 5 software, and results are shown in Table 1. Inhibition rate %=(V0−Vi)/(V0−Vblank)×100.
In the formula: V0 is the reaction rate of the control well (using the same volume of reaction buffer without adding test compound), Vi is the reaction rate of test compound, Vblank is a blank well (using the same volume of reaction buffer without adding either enzyme or test compound).

Chain of human coagulation factor XIa (P03951 388-625): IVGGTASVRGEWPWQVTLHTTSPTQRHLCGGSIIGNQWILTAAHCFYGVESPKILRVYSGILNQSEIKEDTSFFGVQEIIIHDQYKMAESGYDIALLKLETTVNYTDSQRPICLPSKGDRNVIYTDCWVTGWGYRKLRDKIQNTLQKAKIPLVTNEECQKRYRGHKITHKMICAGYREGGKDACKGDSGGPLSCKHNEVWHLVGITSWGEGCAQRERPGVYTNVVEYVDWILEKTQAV
Chain of human coagulation factor XIa (P03951 19-387): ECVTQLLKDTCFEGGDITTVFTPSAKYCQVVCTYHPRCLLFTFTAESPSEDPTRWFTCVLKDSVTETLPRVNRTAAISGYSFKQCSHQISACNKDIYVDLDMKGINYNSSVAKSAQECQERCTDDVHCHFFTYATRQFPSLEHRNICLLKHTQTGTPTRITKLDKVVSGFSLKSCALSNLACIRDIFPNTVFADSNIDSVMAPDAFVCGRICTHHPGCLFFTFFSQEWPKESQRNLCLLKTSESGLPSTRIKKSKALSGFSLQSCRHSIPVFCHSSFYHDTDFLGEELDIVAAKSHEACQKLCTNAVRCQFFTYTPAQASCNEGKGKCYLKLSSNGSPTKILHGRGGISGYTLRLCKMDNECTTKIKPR

In series [1], `CN1CCN(c2cccc3c2CCN(C(=O)/C=C/c2c(-n4cnnn4)ccc(Cl)c2F)[C@@H]3C(=O)Nc2ccc(C(=O)O)cc2)C(=O)C1` [BMS-962212, reference compound] returned an AUC(0-inf) of 4090 ± 654 ng·h/mL, an AUC(0-t) of 4090 ± 654 ng·h/mL, a Cmax of 11100 ± 1850 ng/mL and a clearance of 20.7 ± 2.7 mL/min/kg. In addition, in series [1], the half-life is 11.4 ± 1.8 min. Further, in series [2], the AUC(0-inf) was 484 ± 38 ng·h/mL, the area under the curve AUC(0-t) was found to be 476 ± 35 ng·h/mL, the Cmax amounted to 1470 ± 145 ng/mL and the Vd came out at 1.28 ± 0.28 L/kg. In series [2], this compound gave a clearance of 34.6 ± 2.8 mL/min/kg and a half-life of 25.8 ± 6.6 min. In series [3], this compound displayed an AUC(0-inf) of 846 ± 80 ng·h/mL, an AUC(0-t) of 846 ± 80 ng·h/mL, a Cmax of 1480 ± 40 ng/mL and a volume of distribution (Vd) of 0.71 ± 0.04 L/kg. Moreover, in series [3], the clearance is 9.91 ± 0.94 mL/min/kg and the half-life is 49.8 ± 3 min. Besides, in series [4], the no observed adverse effect level (NOAEL) at 14 days is < 60 mg/kg. For the same compound, the “Repeated dose toxicity study in SD rats: females died (10th and 12th day of the administration)” value in the series on SD rats [5] (daily) was “female animals. Two”. In addition, the “Repeated dose toxicity study in SD rats: body weight finding” value in the series with SD rats [5] (daily for 14 days, female animals) was “Significant weight loss”. In series [6], this compound returned an MTD at 7 days of 70 mg/kg. The “Single dose toxicity study in SD rats: observation” value in the series on SD rats [7] (50 mg/kg) was “No abnormality was”. The “Single dose toxicity study in SD rats: observation” value in the series on SD rats [7] (70 mg/kg) is given as “obviously hypoactive”. For the same compound, the “Single dose toxicity study in SD rats: observation” value with SD rats [7] (75 mg/kg) was “high mortality”. Besides, the “Single dose toxicity study in SD rats: observation” value with SD rats [7] (75 mg/kg, listed as Reference compound) was “Death of the animals”.

For `CC(C)[C@H](N)C(=O)N1CC=C(c2cccc3c2CCN(C(=O)[C@H]2CC(c4cccc(Cl)c4F)=NO2)[C@@H]3C(=O)Nc2ccc(C(=O)O)cc2)CC1` [Example 1, 4-((S)-5-(1-((S)-2-amino-3-methylbutanoyl)-1,2,3,6-tetrahydropyridin-4-yl)-2-((R)-3-(3-chloro-2-fluorophenyl)-4,5-dihydroisoxazole-5-carbonyl)-1,2,3,4-tetrahydroisoquinoline-1-carboxamido)benzoic acid], in series [8], it took 0.33 ± 0.06 nM to reach half-maximal inhibition (IC50).

Turning to `N[C@@H](CCC(=O)N1CC=C(c2cccc3c2CCN(C(=O)[C@H]2CC(c4cccc(Cl)c4F)=NO2)[C@@H]3C(=O)Nc2ccc(C(=O)O)cc2)CC1)C(=O)O` [Example 2, 4-((S)-5-(1-((S)-4-amino-4-carboxybutanoyl)-1,2,3,6-tetrahydropyridin-4-yl)-2-((R)-3-(3-chloro-2-fluorophenyl)-4,5-dihydroisoxazole-5-carbonyl)-1,2,3,4-tetrahydroisoquinoline-1-carboxamido)benzoic acid], in series [8], the half-inhibitory concentration (IC50) was 0.21 ± 0.02 nM.

`N[C@@H](CCC(=O)O)C(=O)N1CC=C(c2cccc3c2CCN(C(=O)[C@H]2CC(c4cccc(Cl)c4F)=NO2)[C@@H]3C(=O)Nc2ccc(C(=O)O)cc2)CC1` [Example 3, 4-((S)-5-(1-((S)-2-amino-4-carboxybutanoyl)-1,2,3,6-tetrahydropyridin-4-yl)-2-((R)-3-(3-chloro-2-fluorophenyl)-4,5-dihydroisoxazole-5-carbonyl)-1,2,3,4-tetrahydroisoquinoline-1-carboxamido)benzoic acid]: the IC50 in series [8] stood at 0.29 ± 0.04 nM.

Regarding `C[C@H](N)C(=O)N1CC=C(c2cccc3c2CCN(C(=O)[C@H]2CC(c4cccc(Cl)c4F)=NO2)[C@@H]3C(=O)Nc2ccc(C(=O)O)cc2)CC1` [Example 4, 4-((S)-5-(1-((S)-2-aminopropanoyl)-1,2,3,6-tetrahydropyridin-4-yl)-2-((R)-3-(3-chloro-2-fluorophenyl)-4,5-dihydroisoxazole-5-carbonyl)-1,2,3,4-tetrahydroisoquinoline-1-carboxamido)benzoic acid], the IC50 in series [8] turned out to be 0.85 ± 0.03 nM.
